Reference: PubChem BioAssay AID328 (DTP/NCI, 2004)
Several values for one entry are separate records, joined by “and”; a condition that tells them apart may be missing. Equal entries are not always repeated. Toxic doses and inconclusive results are not listed.

Tested on: BDF1 mice, P388 leukemia ip, median survival T/C
Assay: NCI In Vivo Anticancer Drug Screen. Data for tumor model P388 Leukemia (intraperitoneal) in B6D2F1 (BDF1) mice
Details: endpoint: median survival time, higher = longer survival
How it was run: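 Reported as T/C, where T is the survival measurement in dosed animals and C the same measurement in vehicle controls.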

[1] = dose: 25.0 mg/kg/injection, schedule: Q01DX009 (ip), vehicle: saline
[2] = dose: 50.0 mg/kg/injection, schedule: Q01DX009 (ip), vehicle: saline
[3] = dose: 100.0 mg/kg/injection, schedule: Q01DX009 (ip), vehicle: saline with Tween-80
[4] = dose: 200.0 mg/kg/injection, schedule: Q01DX009 (ip), vehicle: saline with Tween-80
[5] = dose: 400.0 mg/kg/injection, schedule: Q01DX009 (ip), vehicle: saline with Tween-80
[6] = dose: 50.0 mg/kg/injection, schedule: Q01DX009 (ip), vehicle: saline with Tween-80
[7] = dose: 25.0 mg/kg/injection, schedule: Q04DX003 (ip), vehicle: saline
[8] = dose: 50.0 mg/kg/injection, schedule: Q04DX003 (ip), vehicle: saline
[9] = dose: 50.0 mg/kg/injection, schedule: Q01DX009 (ip), vehicle: water
[10] = dose: 100.0 mg/kg/injection, schedule: Q01DX009 (ip), vehicle: water
[11] = dose: 100.0 mg/kg/injection, schedule: Q04DX003 (ip), vehicle: water
[12] = dose: 200.0 mg/kg/injection, schedule: Q01DX009 (ip), vehicle: water
[13] = dose: 200.0 mg/kg/injection, schedule: Q04DX003 (ip), vehicle: water
[14] = dose: 25.0 mg/kg/injection, schedule: Q01DX009 (ip), vehicle: water

## O=C(C[n+]1ccc2ccccc2c1)c1ccc(Br)cc1
dose: 7.03 mg/kg/injection, schedule: Q04DX003 (ip), vehicle: saline
  T/C: 100 % of control
dose: 12.5 mg/kg/injection, schedule: Q01DX009 (ip), vehicle: saline
  T/C: 114 % of control
dose: 14.06 mg/kg/injection, schedule: Q04DX003 (ip), vehicle: saline
  T/C: 108 % of control
[1]
  T/C: 109 % of control
dose: 28.12 mg/kg/injection, schedule: Q04DX003 (ip), vehicle: saline
  T/C: 100 % of control
[2]
  T/C: 119 % of control
dose: 56.25 mg/kg/injection, schedule: Q04DX003 (ip), vehicle: saline
  T/C: 95 % of control
dose: 75.0 mg/kg/injection, schedule: Q01DX009 (ip), vehicle: saline
  T/C: 112 % of control

## Cc1ccc2ccccc2n1
dose: 100.0 mg/kg/injection, schedule: Q04DX003 (ip), vehicle: saline
  T/C: 87 % of control
dose: 200.0 mg/kg/injection, schedule: Q04DX003 (ip), vehicle: saline
  T/C: 91 % of control

## CSc1ncc(Br)c(C(=O)O)n1
[3]
  T/C: 95 % of control
[4]
  T/C: 100 % of control
[5]
  T/C: 104 % of control

## O=C(O)c1oc2ccccc2c1CO
[6]
  T/C: 99 % of control
[3]
  T/C: 101 % of control
[4]
  T/C: 105 % of control

## O=C1N=C(C(F)(F)F)N=C1c1[nH]c(C(F)(F)F)nc1O
[6]
  T/C: 111 % of control
[3]
  T/C: 102 % of control
dose: 100.0 mg/kg/injection, schedule: Q04DX003 (ip), vehicle: saline with Tween-80
  T/C: 100 % of control
[4]
  T/C: 102 % of control
dose: 200.0 mg/kg/injection, schedule: Q04DX003 (ip), vehicle: saline with Tween-80
  T/C: 102 % of control
[5]
  T/C: 116 % of control
dose: 400.0 mg/kg/injection, schedule: Q04DX003 (ip), vehicle: saline with Tween-80
  T/C: 98 % of control

## CSc1ccc2c(c1)C(N1CCN(C)CC1)Cc1ccccc1S2 (stereo not given)
dose: 6.25 mg/kg/injection, schedule: Q04DX003 (ip), vehicle: saline
  T/C: 113 % of control
[7]
  T/C: 114 % of control
[8]
  T/C: 107 % of control

## CCCCN(CCCC)CCC(O)c1cc(-c2ccc(C(F)(F)F)cc2)nc(C(F)(F)F)c1 (stereo not given)
[6]
  T/C: 106 % of control

## CC(=O)Nc1ccc(N=Nc2c(C)nn(C(=N)N)c2C)cc1
[1]
  T/C: 97 % of control
[2]
  T/C: 97 % of control

## O=C(CN1CC1)NCCCCCCCCCNC(=O)CN1CC1
dose: 8.0 mg/kg/injection, schedule: Q04DX003 (ip), vehicle: saline
  T/C: 122 % of control
dose: 12.0 mg/kg/injection, schedule: Q04DX003 (ip), vehicle: saline
  T/C: 122 % of control
dose: 18.0 mg/kg/injection, schedule: Q04DX003 (ip), vehicle: saline
  T/C: 122 % of control
dose: 18.75 mg/kg/injection, schedule: Q04DX003 (ip), vehicle: saline sonified
  T/C: 218 % of control
dose: 37.5 mg/kg/injection, schedule: Q04DX003 (ip), vehicle: saline sonified
  T/C: 172 % of control

## CCCCNC(C)(C)COC(=O)/C=C/c1ccc(OCCCC)cc1
dose: 6.25 mg/kg/injection, schedule: Q01DX010 (ip), vehicle: saline
  T/C: 100 % of control
dose: 12.5 mg/kg/injection, schedule: Q01DX010 (ip), vehicle: saline
  T/C: 100 % of control
dose: 25.0 mg/kg/injection, schedule: Q01DX010 (ip), vehicle: saline
  T/C: 113 % of control
dose: 50.0 mg/kg/injection, schedule: Q01DX010 (ip), vehicle: saline
  T/C: 100 % of control

## NC(=S)N/N=C/c1ccccn1
dose: 1.0 mg/kg/injection, schedule: Q01DX010 (ip), vehicle: carboxymethylcellulose (CMC)
  T/C: 110 % of control
dose: 2.0 mg/kg/injection, schedule: Q01DX010 (ip), vehicle: carboxymethylcellulose (CMC)
  T/C: 110 % of control
dose: 30.0 mg/kg/injection, schedule: Q01DX010 (ip), vehicle: saline
  T/C: 112 % of control

## O=S(=O)(CS(=O)(=O)C(F)(F)C(F)(F)C(F)(F)C(F)(F)F)C(F)(F)C(F)(F)C(F)(F)C(F)(F)F
[2]
  T/C: 114 % of control
dose: 100.0 mg/kg/injection, schedule: Q01DX009 (ip), vehicle: saline
  T/C: 114 % of control
dose: 200.0 mg/kg/injection, schedule: Q01DX009 (ip), vehicle: saline
  T/C: 106 % of control

## COC(=O)Cc1c[nH]c(=O)[nH]c1=O
[9]
  T/C: 117 % of control
[10]
  T/C: 102 % of control
[11]
  T/C: 99 % of control
[12]
  T/C: 96 % of control
[13]
  T/C: 94 % of control

## CN(CCOS(C)(=O)=O)CCOS(C)(=O)=O
dose: 0.01 mg/kg/injection, schedule: Q01DX009 (ip), vehicle: saline
  T/C: 172 % of control
dose: 0.02 mg/kg/injection, schedule: Q01DX009 (ip), vehicle: saline
  T/C: 213 % of control
dose: 0.07 mg/kg/injection, schedule: Q04DX003 (ip), vehicle: saline
  T/C: 122 % of control
dose: 0.11 mg/kg/injection, schedule: Q04DX003 (ip), vehicle: saline
  T/C: 154 % of control
dose: 0.36 mg/kg/injection, schedule: Q01DX009 (ip), vehicle: saline
  T/C: 104 % of control and 218 % of control
dose: 0.56 mg/kg/injection, schedule: Q01DX009 (ip), vehicle: saline
  T/C: 231 % of control and 260 % of control and 90 % of control
dose: 0.75 mg/kg/injection, schedule: Q04DX003 (ip), vehicle: saline
  T/C: 213 % of control
dose: 0.84 mg/kg/injection, schedule: Q01DX009 (ip), vehicle: saline
  T/C: 231 % of control
dose: 0.99 mg/kg/injection, schedule: Q04DX003 (ip), vehicle: saline
  T/C: 225 % of control
dose: 1.5 mg/kg/injection, schedule: Q04DX003 (ip), vehicle: saline
  T/C: 240 % of control and 250 % of control
dose: 2.25 mg/kg/injection, schedule: Q04DX003 (ip), vehicle: saline
  T/C: 150 % of control
dose: 2.3 micrograms/kg/injection, schedule: Q01DX009 (ip), vehicle: saline
  T/C: 87 % of control
dose: 19.0 micrograms/kg/injection, schedule: Q01DX009 (ip), vehicle: saline
  T/C: 160 % of control
dose: 44.0 micrograms/kg/injection, schedule: Q01DX009 (ip), vehicle: saline
  T/C: 158 % of control
dose: 66.0 micrograms/kg/injection, schedule: Q01DX009 (ip), vehicle: saline
  T/C: 220 % of control

## CC12OC1C(=O)c1ccccc1C2=O (stereo not given)
dose: 0.75 mg/kg/injection, schedule: Q01DX009 (ip), vehicle: Klucel (hydroxypropylcellulose) (HPC)
  T/C: 87 % of control
dose: 1.5 mg/kg/injection, schedule: Q01DX009 (ip), vehicle: Klucel (hydroxypropylcellulose) (HPC)
  T/C: 100 % of control
dose: 2.5 mg/kg/injection, schedule: Q01DX009 (ip), vehicle: Klucel (hydroxypropylcellulose) (HPC)
  T/C: 89 % of control
dose: 3.0 mg/kg/injection, schedule: Q01DX009 (ip), vehicle: Klucel (hydroxypropylcellulose) (HPC)
  T/C: 95 % of control
dose: 5.0 mg/kg/injection, schedule: Q04DX003 (ip), vehicle: Klucel (hydroxypropylcellulose) (HPC)
  T/C: 92 % of control
dose: 10.0 mg/kg/injection, schedule: Q04DX003 (ip), vehicle: Klucel (hydroxypropylcellulose) (HPC)
  T/C: 92 % of control

## CCc1ccccc1OS(=O)(=O)c1ccc([N+](=O)[O-])cc1
dose: 100.0 mg/kg/injection, schedule: Q01DX009 (ip), vehicle: saline sonified
  T/C: 88 % of control
dose: 200.0 mg/kg/injection, schedule: Q01DX009 (ip), vehicle: saline sonified
  T/C: 88 % of control
dose: 400.0 mg/kg/injection, schedule: Q01DX009 (ip), vehicle: saline sonified
  T/C: 94 % of control

## Brc1cnc[nH]1
[14]
  T/C: 103 % of control
dose: 25.0 mg/kg/injection, schedule: Q04DX003 (ip), vehicle: water
  T/C: 106 % of control
[9]
  T/C: 91 % of control
dose: 50.0 mg/kg/injection, schedule: Q04DX003 (ip), vehicle: water
  T/C: 94 % of control and 106 % of control
[10]
  T/C: 87 % of control
[11]
  T/C: 93 % of control (2×) and 110 % of control
[12]
  T/C: 100 % of control
[13]
  T/C: 89 % of control and 97 % of control
dose: 300.0 mg/kg/injection, schedule: Q04DX003 (ip), vehicle: water
  T/C: 98 % of control
dose: 400.0 mg/kg/injection, schedule: Q04DX003 (ip), vehicle: water
  T/C: 94 % of control and 99 % of control and 103 % of control

## c1cn[nH]c1
dose: 4.0 mg/kg/injection, schedule: Q01DX010 (ip), vehicle: water
  T/C: 100 % of control
dose: 8.0 mg/kg/injection, schedule: Q01DX010 (ip), vehicle: water
  T/C: 90 % of control

## C[n+]1c(-c2cc(N)cc(C(F)(F)F)c2)c2cc(N)ccc2c2ccc(N)cc21
dose: 6.25 mg/kg/injection, schedule: Q01DX009 (ip), vehicle: water
  T/C: 150 % of control
dose: 12.5 mg/kg/injection, schedule: Q01DX009 (ip), vehicle: water
  T/C: 181 % of control
[14]
  T/C: 95 % of control

## N=c1ccc2nc3ccc(N)cc3sc-2c1
[7]
  T/C: 100 % of control
[8]
  T/C: 109 % of control
